Biological target: T1, E1 and His-E2 Ubch10 (Homo sapiens, UniProt P22314)
T1 construct: host or cells: E. coli (His-Ubch10); Sf9 insect cells (E1)
T1 sequence (P22314 1-1058): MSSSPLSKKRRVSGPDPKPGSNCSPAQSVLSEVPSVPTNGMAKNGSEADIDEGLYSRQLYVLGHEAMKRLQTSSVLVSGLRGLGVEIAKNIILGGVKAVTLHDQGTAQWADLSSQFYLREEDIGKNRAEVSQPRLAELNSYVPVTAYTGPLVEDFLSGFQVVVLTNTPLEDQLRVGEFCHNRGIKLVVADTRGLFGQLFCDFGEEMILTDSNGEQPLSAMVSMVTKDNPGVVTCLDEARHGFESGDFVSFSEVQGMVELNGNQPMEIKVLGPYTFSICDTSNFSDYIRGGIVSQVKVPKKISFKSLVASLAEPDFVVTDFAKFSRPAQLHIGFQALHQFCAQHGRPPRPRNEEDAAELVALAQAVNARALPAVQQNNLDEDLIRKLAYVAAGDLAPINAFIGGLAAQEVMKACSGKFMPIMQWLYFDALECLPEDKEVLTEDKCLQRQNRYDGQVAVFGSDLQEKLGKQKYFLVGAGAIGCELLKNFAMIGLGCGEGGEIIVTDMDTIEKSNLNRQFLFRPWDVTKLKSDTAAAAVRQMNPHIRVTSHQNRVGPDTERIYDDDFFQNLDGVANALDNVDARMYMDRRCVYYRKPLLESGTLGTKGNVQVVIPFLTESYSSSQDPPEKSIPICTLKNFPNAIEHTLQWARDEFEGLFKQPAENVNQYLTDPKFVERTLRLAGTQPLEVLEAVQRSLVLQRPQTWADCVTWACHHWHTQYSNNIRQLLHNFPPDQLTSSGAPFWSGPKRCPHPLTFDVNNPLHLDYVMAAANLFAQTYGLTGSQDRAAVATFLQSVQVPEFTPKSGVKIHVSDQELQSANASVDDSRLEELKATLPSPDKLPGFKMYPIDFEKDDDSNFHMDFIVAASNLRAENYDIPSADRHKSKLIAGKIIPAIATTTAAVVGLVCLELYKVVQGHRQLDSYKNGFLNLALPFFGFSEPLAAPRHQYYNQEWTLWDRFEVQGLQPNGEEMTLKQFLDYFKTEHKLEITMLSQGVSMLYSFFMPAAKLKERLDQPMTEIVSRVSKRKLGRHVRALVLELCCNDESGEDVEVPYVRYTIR
Experiment: E1 to E2 transfer assay, His-E2 Ubch10, 1.0 μM ATP (low ATP)
Assay type: biochemical
Conditions: Table 5, ATP inhibition properties; inhibition measured using IC50 values
Source text: Biological assays for determining the transfer of ubiquitin from the E1 activating agent to the E2 conjugating agent are described in U.S. patent application Ser. Nos. 09/542,497 and 09/826,312 as well as in the PCT Application WO 01/75145, all of which are incorporated by reference in their entirety. The following assay example illustrates one way by which the ubiquitin ligase inhibitory activity of the compounds of the invention can be assayed. This assay example is not meant to limit in any way the use of the compounds of the invention as ubiquitin ligase inhibitors.
The attachment of a ubiquitin moiety to the E2 conjugating agent was assayed using Flag-ubiquitin that was purified from E. coli, E2 Ubch10 that was purified as a His-Ubch10 from E. coli, and E1 that was purified from Sf9 insect cells (Affiniti Research Products, Exeter, U.K.). The wells of a Nickel-substrate 96-well plate (Pierce Chemical) were blocked with 100 μl of 1% casein/phosphate buffered saline (PBS) for 1 hour at room temperature. The blocked Nickel-substrate plate was then washed three times with 200 μl of PBST (0.1% Tween-20 in PBS). Subsequently, Flag-ubiquitin reaction solution was added to each well so that the final concentration was 62.5 mM Tris pH 7.5, […], 0.75 mM DTT, 1.0 μM ATP (low ATP), and 100 ng Flag-ubiquitin. The final reaction solution volume was fixed to 80 μl with Millipore-filtered water. To this was added the following: a ubiquitin agent inhibitor in 10 μl of DMSO, 10 μl of E1 and His-E2 Ubch10 in 20 mM Tris buffer, pH 7.5, and 5% glycerol so that there was 10 ng/well of E1 and 20 ng/well of His-E2 Ubch10. The reaction was then allowed to proceed at room temperature for 1 hour.
After 1 hour, the wells were washed three times with 200 μl of PBST and the amount of E2-ubiquitin complex was measured. For measuring the amount of the E2-ubiquitin complex, 100 μl of Mouse anti-flag diluted 1:10,000 (Sigma Aldrich Fluka Chemicals, St. Louis, Mo.) and anti-mouse HRP diluted 1:15,000 (Jackson Immunoresearch labs, West Grove, Pa.) in PBST were added to each well and allowed to incubate at room temperature for another hour. The wells were then washed three times with 200 μl of PBST and 100 μl of luminol substrate (⅕ dilution) was added. The luminescence of each well was then measured using a […] to calculate the amount of E2-ubiquitin complex. This procedure was repeated using His-E2 Ubch5C instead of His-E2 Ubch10.
The table below illustrates the inhibitory properties of the pharmaceutical compostions of the invention comprising the compounds listed in the table using the assays described above. Inhibition was measured using IC50 values.

SMILES	UBC10
CCCc1ccc(C(=O)Nc2nc3ccc(OC)cc3s2)cc1 [Compound 81, N-(6-methoxybenzo[d]thiazol-2-yl)-4-propylbenzamide]	++ (++ indicates inhibition at 50 μM or or less)
CCCCc1ccc(C(=O)Nc2nc3ccc(OC)cc3s2)cc1 [Compound 82, 4-butyl-N-(6-methoxybenzo[d]thiazol-2-yl)benzamide]	++ (++ indicates inhibition at 50 μM or or less)
CCCCCCc1ccc(C(=O)Nc2nc3ccc(OC)cc3s2)cc1 [Compound 83, 4-hexyl-N-(6-methoxybenzo[d]thiazol-2-yl)benzamide]	−− (−− indicates marginal or no inhibition detected with this assay)
Cc1ccc(C(=O)Nc2nc3ccccc3s2)cc1 [Compound 84, N-(benzo[d]thiazol-2-yl)-4-methylbenzamide]	++ (++ indicates inhibition at 50 μM or or less)
CCc1ccc(C(=O)Nc2nc3ccccc3s2)cc1 [Compound 85, N-(benzo[d]thiazol-2-yl)-4-ethylbenzamide]	++ (++ indicates inhibition at 50 μM or or less)
Nc1ccc(C(=O)Nc2nc3ccccc3s2)cc1 [Compound 86, 4-amino-N-(benzo[d]thiazol-2-yl)benzamide]	−− (−− indicates marginal or no inhibition detected with this assay)
COc1ccc2nc(NC(=O)c3ccco3)sc2c1 [Compound 87, N-(6-methoxybenzo[d]thiazol-2-yl)furan-2-carboxamide]	++ (++ indicates inhibition at 50 μM or or less)
O=C(Nc1nc2ccccc2s1)c1ccco1 [Compound 88, N-(benzo[d]thiazol-2-yl)furan-2-carboxamide]	−− (−− indicates marginal or no inhibition detected with this assay)
O=C(Nc1nc2ccccc2s1)c1cccs1 [Compound 89, N-(benzo[d]thiazol-2-yl)thiophene-2-carboxamide]	−− (−− indicates marginal or no inhibition detected with this assay)
CCOc1ccc2nc(NC(=O)c3ccc4c(c3)OCCO4)sc2c1 [Compound 90, N-(6-ethoxybenzo[d]thiazol-2-yl)-2,3-dihydrobenzo[b][1,4]dioxine-6-carboxamide]	++ (++ indicates inhibition at 50 μM or or less)
CCOc1ccc2nc(NC(=O)c3ccc(CC)cc3)sc2c1 [Compound 91, N-(6-ethoxybenzo[d]thiazol-2-yl)-4-ethylbenzamide]	−− (−− indicates marginal or no inhibition detected with this assay)
CCOc1ccc2nc(NC(=O)c3ccc(C)cc3)sc2c1 [Compound 92, N-(6-ethoxybenzo[d]thiazol-2-yl)-4-methylbenzamide]	−− (−− indicates marginal or no inhibition detected with this assay)
CCOc1ccc2nc(NC(=O)c3ccc(C)c(C)c3)sc2c1 [Compound 93, N-(6-ethoxybenzo[d]thiazol-2-yl)-3,4-dimethylbenzamide]	−− (−− indicates marginal or no inhibition detected with this assay)
CCOc1ccc2nc(NC(=O)c3ccc(NC(C)=O)cc3)sc2c1 [Compound 94, 4-acetamido-N-(6-ethoxybenzo[d]thiazol-2-yl)benzamide]	−− (−− indicates marginal or no inhibition detected with this assay)
COc1ccc2nc(NC(=O)c3ccc(Cl)c(Cl)c3)sc2c1 [Compound 95, 3,4-dichloro-N-(6-methoxybenzo[d]thiazol-2-yl)benzamide]	++ (++ indicates inhibition at 50 μM or or less)
CCOc1ccc2nc(NC(=O)c3ccc(Cl)c(Cl)c3)sc2c1 [Compound 96, 3,4-dichloro-N-(6-ethoxybenzo[d]thiazol-2-yl)benzamide]	++ (++ indicates inhibition at 50 μM or or less)
COc1ccc2nc(NC(=O)NC34CC5CC(CC(C5)C3)C4)sc2c1 [Compound 97, N-1-adamantyl-N′-(6-methoxy-1,3-benzothiazol-2-yl)urea]	++ (++ indicates inhibition at 50 μM or or less)
COc1ccc2nc(NC(=O)Nc3ccccc3)sc2c1 [Compound 98, 1-(6-methoxybenzo[d]thiazol-2-yl)-3-phenylurea]	−− (−− indicates marginal or no inhibition detected with this assay)
COc1ccc2nc(NC(=O)Nc3ccc(Cl)cc3)sc2c1 [Compound 99, 1-(4-chlorophenyl)-3-(6-methoxybenzo[d]thiazol-2-yl)urea]	−− (−− indicates marginal or no inhibition detected with this assay)
COc1ccc2nc(NC(=O)Nc3cccc(F)c3)sc2c1 [Compound 100, 1-(3-fluorophenyl)-3-(6-methoxybenzo[d]thiazol-2-yl)urea]	++ (++ indicates inhibition at 50 μM or or less)
COc1ccc2nc(NC(=O)c3ccc(C)cc3C)sc2c1 [Compound 101, N-(6-methoxybenzo[d]thiazol-2-yl)-2,4-dimethyibenzamide]	++ (++ indicates inhibition at 50 μM or or less)
COc1ccc2nc(NC(=O)c3sccc3C)sc2c1 [Compound 103, N-(6-methoxybenzo[d]thiazol-2-yl)-3-methylthiophene-2-carboxamide]	++ (++ indicates inhibition at 50 μM or or less)
COc1ccc2nc(NC(=O)c3sccc3Cl)sc2c1 [Compound 104, 3-chloro-N-(6-methoxybenzo[d]thiazol-2-yl)thiophene-2-carboxamide]	−− (−− indicates marginal or no inhibition detected with this assay)
COc1ccc(OC)c(NC(=O)Nc2nc3ccc(OC)cc3s2)c1 [Compound 120, 1-(2,5-dimethoxyphenyl)-3-(6-methoxybenzo[d]thiazol-2-yl)urea]	++ (++ indicates inhibition at 50 μM or or less)
COc1ccc2nc(NC(=O)Nc3cccc(Cl)c3Cl)sc2c1 [Compound 124, 1-(2,3-dichlorophenyl)-3-(6-methoxybenzo[d]thiazol-2-yl)urea]	−− (−− indicates marginal or no inhibition detected with this assay)
CCOC(=O)c1ccc(NC(=O)Nc2nc3ccc(OC)cc3s2)cc1 [Compound 126]	−− (−− indicates marginal or no inhibition detected with this assay)
CCOC(=O)c1ccc(NC(=O)Nc2nc3ccc(OCC)cc3s2)cc1 [Compound 136, ethyl 4-(3-(6-ethoxybenzo[d]thiazol-2-yl)ureido)benzoate]	−− (−− indicates marginal or no inhibition detected with this assay)
COc1ccc2nc(NC(=O)Nc3ccc(C#N)cc3)sc2c1 [Compound 137, 1-(4-cyanophenyl)-3-(6-methoxybenzo[d]thiazol-2-yl)urea]	−− (−− indicates marginal or no inhibition detected with this assay)
COc1ccc2nc(NC(=O)c3cccs3)sc2n1 [Compound 138, N-(5-methoxythiazolo[5,4-b]pyridin-2-yl)thiophene-2-carboxamide]	++ (++ indicates inhibition at 50 μM or or less)
